US10487093B2, “Heterocyclic compounds, in particular 2-oxo-4,4,5,5,6,6,7,7-octahydrobenzoxazole derivatives, and their use as antibacterial compounds” (priority 2016, dated 2019)
In brackets after ≈: the same amount, converted by molar mass. Read-outs that look alike come from different tables or passages of the source.

How the values were obtained:
Type in all cases: cell-based
[1] = tested on: Haemophilus influenzae ATCC 49247; test: MIC, broth microdilution (CLSI) versus planktonic bacteria; conditions: ATCC49247; Haemophilus influenzae ATCC 49247; 16-20 h; mode of three independent experiments; read-out: MIC, Hi ATCC 49247
[2] = tested on: Staphylococcus aureus ATCC 29213; test: as above; conditions: ATCC29213; Staphylococcus aureus ATCC 29213; 16-20 h; mode of three independent experiments; read-out: MIC, Sa ATCC 29213
[3] = tested on: Clostridium difficile ATCC 700057; test: MIC against anaerobes, agar dilution (CLSI), reference strain; conditions: Clostridioides difficile, ATCC700057, 48 h, read-out: MIC, C. difficile ATCC 700057
[4] = tested on: Bacteroides fragilis ATCC 25285; test: as above; conditions: ATCC25285, agar dilution, Brucella blood agar, 35° C., 48 h, anaerobic conditions, read-out: MIC, B. fragilis ATCC 25285
[5] = tested on: Bacteroides thetaiotaomicron ATCC 29741; test: microbe, parasite or virus in culture; conditions: ATCC29741, agar dilution, Brucella blood agar, 35° C., 48 h, anaerobic conditions, read-out: MIC, B. thetaiotaomicron ATCC
[6] = tested on: strains of Clostridium perfringens; test: microbe, parasite or virus in culture
[7] = tested on: strains of Finegoldia magna; test: MIC against anaerobes, agar dilution (CLSI), clinical isolates; conditions: Finegoldia magna, read-out: MIC
[8] = tested on: strains of Parvimonas micra; test: as above
[9] = tested on: strains of Peptoniphilus harei; test: as above; conditions: Peptoniphilus harei, read-out: MIC
[10] = tested on: strains of Peptostreptococcus anaerobius; test: as above
[11] = tested on: strains of Propionibacterium acnes; test: as above; conditions: Cutibacterium acnes
[12] = tested on: strains of Bacteroides fragilis; test: as above
[13] = tested on: strains of Bacteroides thetaiotaomicron; test: microbe, parasite or virus in culture
[14] = tested on: strains of Prevotella bivia; test: MIC against anaerobes, agar dilution (CLSI), clinical isolates
[15] = tested on: strains of Prevotella melaninogenica; test: as above

## Cc1ccc2ncc(=O)n(CCN[C@H]3CC[C@H]4[C@@H](C3)OC(=O)N4c3ccc4c(n3)NC(=O)CO4)c2c1 [Compound 27, 1-(2-{[(3aS,6S,7aR)-2-oxo-3-{3-oxo-2H,3H,4H-pyrido[3,2-b][1,4]oxazin-6-yl}-octahydro-1,3-benzoxazol-6-yl]amino}ethyl)-7-methyl-1,2-dihydroquinoxalin-2-one]
[1]
  MIC: 1 to 10 µg/mL (≈ 2.04 to 20.4 µM)
[2]
  MIC: < 1 µg/mL
[3]
  MIC: 1 to 4 µg/mL (≈ 2.04 to 8.15 µM)
[4]
  MIC: 4 to 16 µg/mL (≈ 8.15 to 32.6 µM)
[5]
  MIC: 1 to 4 µg/mL (≈ 2.04 to 8.15 µM)
[6]; Clostridium perfringens strain 1
  MIC: < 1 µg/mL
[6]; Clostridium perfringens strain 2
  MIC: < 1 µg/mL
[6]; Clostridium perfringens strain 3
  MIC: < 1 µg/mL
[6]; Clostridium perfringens strain 4
  MIC: < 1 µg/mL
[6]; Clostridium perfringens strain 5
  MIC: < 1 µg/mL
[6]; Clostridium perfringens strain 6
  MIC: < 1 µg/mL
[6]; Clostridium perfringens strain 7
  MIC: < 1 µg/mL
[6]; Clostridium perfringens strain 8
  MIC: 1 to 4 µg/mL (≈ 2.04 to 8.15 µM)
[6]; Clostridium perfringens strain 9
  MIC: < 1 µg/mL
[6]; Clostridium perfringens strain 10
  MIC: < 1 µg/mL
[6]; Clostridium perfringens strain 11
  MIC: < 1 µg/mL
[7]; Finegoldia magna strain 1
  MIC: 1 to 4 µg/mL (≈ 2.04 to 8.15 µM)
[7]; Finegoldia magna strain 2
  MIC: 16 to 64 µg/mL (≈ 32.6 to 130 µM)
[7]; Finegoldia magna strain 3
  MIC: 1 to 4 µg/mL (≈ 2.04 to 8.15 µM)
[7]; Finegoldia magna strain 4
  MIC: 16 to 64 µg/mL (≈ 32.6 to 130 µM)
[7]; Finegoldia magna strain 5
  MIC: 16 to 64 µg/mL (≈ 32.6 to 130 µM)
[7]; Finegoldia magna strain 6
  MIC: 16 to 64 µg/mL (≈ 32.6 to 130 µM)
[7]; Finegoldia magna strain 7
  MIC: > 64 µg/mL
[7]; Finegoldia magna strain 8
  MIC: 1 to 4 µg/mL (≈ 2.04 to 8.15 µM)
[7]; Finegoldia magna strain 9
  MIC: > 64 µg/mL
[7]; Finegoldia magna strain 10
  MIC: 4 to 16 µg/mL (≈ 8.15 to 32.6 µM)
[7]; Finegoldia magna strain 11
  MIC: 16 to 64 µg/mL (≈ 32.6 to 130 µM)
[7]; Finegoldia magna strain 12
  MIC: 16 to 64 µg/mL (≈ 32.6 to 130 µM)
[8]; Parvimonas micra strain 1
  MIC: > 64 µg/mL
[8]; Parvimonas micra strain 2
  MIC: 16 to 64 µg/mL (≈ 32.6 to 130 µM)
[8]; Parvimonas micra strain 3
  MIC: > 64 µg/mL
[8]; Parvimonas micra strain 4
  MIC: > 64 µg/mL
[8]; Parvimonas micra strain 5
  MIC: > 64 µg/mL
[8]; Parvimonas micra strain 6
  MIC: 1 to 4 µg/mL (≈ 2.04 to 8.15 µM)
[8]; Parvimonas micra strain 7
  MIC: 16 to 64 µg/mL (≈ 32.6 to 130 µM)
[8]; Parvimonas micra strain 8
  MIC: 16 to 64 µg/mL (≈ 32.6 to 130 µM)
[8]; Parvimonas micra strain 9
  MIC: 16 to 64 µg/mL (≈ 32.6 to 130 µM)
[8]; Parvimonas micra strain 10
  MIC: 16 to 64 µg/mL (≈ 32.6 to 130 µM)
[8]; Parvimonas micra strain 11
  MIC: 16 to 64 µg/mL (≈ 32.6 to 130 µM)
[8]; Parvimonas micra strain 12
  MIC: 16 to 64 µg/mL (≈ 32.6 to 130 µM)
[9]; Peptoniphilus harei strain 1
  MIC: < 1 µg/mL
[9]; Peptoniphilus harei strain 2
  MIC: < 1 µg/mL
[9]; Peptoniphilus harei strain 3
  MIC: < 1 µg/mL
[9]; Peptoniphilus harei strain 4
  MIC: < 1 µg/mL
[9]; Peptoniphilus harei strain 5
  MIC: < 1 µg/mL
[9]; Peptoniphilus harei strain 6
  MIC: < 1 µg/mL
[9]; Peptoniphilus harei strain 7
  MIC: < 1 µg/mL
[9]; Peptoniphilus harei strain 8
  MIC: < 1 µg/mL
[9]; Peptoniphilus harei strain 9
  MIC: < 1 µg/mL
[9]; Peptoniphilus harei strain 10
  MIC: < 1 µg/mL
[9]; Peptoniphilus harei strain 11
  MIC: < 1 µg/mL
[9]; Peptoniphilus harei strain 12
  MIC: < 1 µg/mL
[10]; Peptostreptococcus anaerobius strain 1
  MIC: < 1 µg/mL
[10]; Peptostreptococcus anaerobius strain 2
  MIC: < 1 µg/mL
[10]; Peptostreptococcus anaerobius strain 3
  MIC: < 1 µg/mL
[10]; Peptostreptococcus anaerobius strain 4
  MIC: 4 to 16 µg/mL (≈ 8.15 to 32.6 µM)
[10]; Peptostreptococcus anaerobius strain 5
  MIC: < 1 µg/mL
[10]; Peptostreptococcus anaerobius strain 6
  MIC: < 1 µg/mL
[10]; Peptostreptococcus anaerobius strain 7
  MIC: < 1 µg/mL
[10]; Peptostreptococcus anaerobius strain 8
  MIC: < 1 µg/mL
[10]; Peptostreptococcus anaerobius strain 9
  MIC: < 1 µg/mL
[10]; Peptostreptococcus anaerobius strain 10
  MIC: < 1 µg/mL
[11]; Propionibacterium acnes strain 1
  MIC: 1 to 4 µg/mL (≈ 2.04 to 8.15 µM)
[11]; Propionibacterium acnes strain 2
  MIC: < 1 µg/mL
[11]; Propionibacterium acnes strain 3
  MIC: < 1 µg/mL
[11]; Propionibacterium acnes strain 4
  MIC: < 1 µg/mL
[11]; Propionibacterium acnes strain 5
  MIC: 1 to 4 µg/mL (≈ 2.04 to 8.15 µM)
[11]; Propionibacterium acnes strain 6
  MIC: 1 to 4 µg/mL (≈ 2.04 to 8.15 µM)
[11]; Propionibacterium acnes strain 7
  MIC: 1 to 4 µg/mL (≈ 2.04 to 8.15 µM)
[11]; Propionibacterium acnes strain 8
  MIC: 1 to 4 µg/mL (≈ 2.04 to 8.15 µM)
[11]; Propionibacterium acnes strain 9
  MIC: 1 to 4 µg/mL (≈ 2.04 to 8.15 µM)
[11]; Propionibacterium acnes strain 10
  MIC: 1 to 4 µg/mL (≈ 2.04 to 8.15 µM)
[11]; Propionibacterium acnes strain 11
  MIC: < 1 µg/mL
[11]; Propionibacterium acnes strain 12
  MIC: 1 to 4 µg/mL (≈ 2.04 to 8.15 µM)
[12]; Bacteroides fragilis strain 1
  MIC: 16 to 64 µg/mL (≈ 32.6 to 130 µM)
[12]; Bacteroides fragilis strain 2
  MIC: 1 to 4 µg/mL (≈ 2.04 to 8.15 µM)
[12]; Bacteroides fragilis strain 3
  MIC: 1 to 4 µg/mL (≈ 2.04 to 8.15 µM)
[12]; Bacteroides fragilis strain 4
  MIC: 1 to 4 µg/mL (≈ 2.04 to 8.15 µM)
[12]; Bacteroides fragilis strain 5
  MIC: 1 to 4 µg/mL (≈ 2.04 to 8.15 µM)
[12]; Bacteroides fragilis strain 6
  MIC: 1 to 4 µg/mL (≈ 2.04 to 8.15 µM)
[12]; Bacteroides fragilis strain 7
  MIC: 4 to 16 µg/mL (≈ 8.15 to 32.6 µM)
[12]; Bacteroides fragilis strain 8
  MIC: 1 to 4 µg/mL (≈ 2.04 to 8.15 µM)
[12]; Bacteroides fragilis strain 9
  MIC: 1 to 4 µg/mL (≈ 2.04 to 8.15 µM)
[12]; Bacteroides fragilis strain 10
  MIC: 1 to 4 µg/mL (≈ 2.04 to 8.15 µM)
[12]; Bacteroides fragilis strain 11
  MIC: 1 to 4 µg/mL (≈ 2.04 to 8.15 µM)
[12]; Bacteroides fragilis strain 12
  MIC: 1 to 4 µg/mL (≈ 2.04 to 8.15 µM)
[13]; Bacteroides thetaiotaomicron strain 1, read-out: MIC
  MIC: 4 to 16 µg/mL (≈ 8.15 to 32.6 µM)
[13]; Bacteroides thetaiotaomicron strain 2, read-out: MIC
  MIC: 1 to 4 µg/mL (≈ 2.04 to 8.15 µM)
[13]; Bacteroides thetaiotaomicron strain 3, read-out: MIC
  MIC: 4 to 16 µg/mL (≈ 8.15 to 32.6 µM)
[13]; Bacteroides thetaiotaomicron strain 4, read-out: MIC
  MIC: 4 to 16 µg/mL (≈ 8.15 to 32.6 µM)
[13]; Bacteroides thetaiotaomicron strain 5, read-out: MIC
  MIC: 1 to 4 µg/mL (≈ 2.04 to 8.15 µM)
[13]; Bacteroides thetaiotaomicron strain 6, read-out: MIC
  MIC: 4 to 16 µg/mL (≈ 8.15 to 32.6 µM)
[13]; Bacteroides thetaiotaomicron strain 7, read-out: MIC
  MIC: 4 to 16 µg/mL (≈ 8.15 to 32.6 µM)
[13]; Bacteroides thetaiotaomicron strain 8, read-out: MIC
  MIC: 1 to 4 µg/mL (≈ 2.04 to 8.15 µM)
[13]; Bacteroides thetaiotaomicron strain 9, read-out: MIC
  MIC: < 1 µg/mL
[13]; Bacteroides thetaiotaomicron strain 10, read-out: MIC
  MIC: 1 to 4 µg/mL (≈ 2.04 to 8.15 µM)
[13]; Bacteroides thetaiotaomicron strain 11, read-out: MIC
  MIC: 4 to 16 µg/mL (≈ 8.15 to 32.6 µM)
[14]; Prevotella bivia strain 1
  MIC: < 1 µg/mL
[14]; Prevotella bivia strain 2
  MIC: < 1 µg/mL
[14]; Prevotella bivia strain 3
  MIC: 1 to 4 µg/mL (≈ 2.04 to 8.15 µM)
[14]; Prevotella bivia strain 4
  MIC: 1 to 4 µg/mL (≈ 2.04 to 8.15 µM)
[14]; Prevotella bivia strain 5
  MIC: < 1 µg/mL
[14]; Prevotella bivia strain 6
  MIC: 1 to 4 µg/mL (≈ 2.04 to 8.15 µM)
[14]; Prevotella bivia strain 7
  MIC: 1 to 4 µg/mL (≈ 2.04 to 8.15 µM)
[14]; Prevotella bivia strain 8
  MIC: < 1 µg/mL
[14]; Prevotella bivia strain 9
  MIC: < 1 µg/mL
[14]; Prevotella bivia strain 10
  MIC: < 1 µg/mL
[15]; Prevotella melaninogenica strain 1
  MIC: 1 to 4 µg/mL (≈ 2.04 to 8.15 µM)
[15]; Prevotella melaninogenica strain 2
  MIC: < 1 µg/mL
[15]; Prevotella melaninogenica strain 3
  MIC: < 1 µg/mL
[15]; Prevotella melaninogenica strain 4
  MIC: < 1 µg/mL
[15]; Prevotella melaninogenica strain 5
  MIC: < 1 µg/mL
[15]; Prevotella melaninogenica strain 6
  MIC: < 1 µg/mL
[15]; Prevotella melaninogenica strain 7
  MIC: < 1 µg/mL
[15]; Prevotella melaninogenica strain 8
  MIC: < 1 µg/mL
[15]; Prevotella melaninogenica strain 9
  MIC: < 1 µg/mL
[15]; Prevotella melaninogenica strain 10
  MIC: 1 to 4 µg/mL (≈ 2.04 to 8.15 µM)
[15]; Prevotella melaninogenica strain 11
  MIC: < 1 µg/mL
